Entries after “also recorded” stand apart in the source; their conditions may differ.
system: HUVEC monolayers; assay: Inhibition of macromolecule (HRP) permeability of thrombin-stimulated HUVEC monolayers; type: cell-based, human; details: 10 μM Motapizone (PDE3) and 1 μM RP73401 (PDE4) together, 1 U/ml thrombin
Protocol: Method to Assess Inhibition of Macromolecule Permeability of HUVEC Monolayers
The procedure to measure macromolecule permeability of endothelial cell monolayers followed the method described by Langeler & van Hinsbergh (1988) with modifications. Human umbilical vein endothelial cells were isolated from umbilical cords according to standard procedures (Jaffe et al. 1973) and cultured in endothelial cell basal medium (EBM) supplemented with 2% FCS, 0.5 ng/ml VEGF, 10 ng/ml bFGF, 5 ng/ml EGF, 20 ng/ml Long R3 IGF-1, 0.2 μg/ml hydrocortisone, 1 μg/ml ascorbic acid, 22.5 μg/ml heparin, 50 μg/ml gentamicin, 50 ng/ml amphotericin B (EGM2 purchased from Promocell GmbH, Heidelberg, Germany). At confluency, cells were trypsinized and replated at 73000 cells per well on 3 μm polycarbonate filter Transwell inserts (Costar GmbH, Bodenheim, Germany) precoated with 10 μg cm^2−1 Fibronectin (Sigma, Taufkirchen, Germany). HUVECs were cultured in EGM2 (100 μl in the upper wells and 600 μl in the lower wells) over four days prior the experiments and medium was changed every other day. At the day of the experiment culture medium was replaced by M199 with 1% human serum albumin. Endothelial cells were preincubated with cyclic nucleotide modifiers (the selective PDE3 inhibitor motapizone, the selective PDE4 inhibitor RP73401, the cGMP generators ANP or SNP and PDE2 inhibitors) for 15 min. HUVECs were then stimulated with Thrombin (1 U ml^−1) (Sigma, Taufkichen, Germany) and horsh radish peroxidase (5 μg/ml) (Sigma, Taufkirchen, Germany) as the macromolecule marker protein was added to the upper wells. Following 1 h incubation time Transwells were removed and the activity of horsh radish peroxidase that penetrated the endothelial cell monolayer was measured in the lower wells with the 3,3′,5,5′-tetramethylbenzidine liquid substrate system from Sigma (Taufkirchen, Germany).
In parallel, compounds according to the invention can inhibit Thrombin-induced permeability of HUVEC monolayers for horsh radish peroxidase (HRP) as a macromolecule marker. […] The concentration-dependent inhibition of HRP permeability at different concentrations was assessed from the percent inhibition in the presence and absence of the PDE2 inhibitors and in the presence of 1 μM RP73401, 10 μM Motapizone and 100 nM ANP.
Inhibition of SNP- or ANP-Induced Permeability of HUVEC Monolayers:
HUVEC cells on 3 μm polycarbonate filters (Transwells) were preincubated with 1 μM RP73401 (to block PDE4) and 10 μM Motapizone (to block PDE3), 1 mM SNP or 100 nM ANP and test sample over 15 min and then stimulated with 1 U/ml thrombin. HRP passage into the lower wells was assessed after 60 min.

Structure (SMILES)	Thrombin-induced increase of HRP permeability (hyperpermeability)
CC1CC(=O)NN=C1c1cc(-n2ccnc2)cs1 (centres unmarked) [Motapizone, reference compound]	completely abolished; also recorded: completely blocked
COc1ccc(C(=O)Nc2c(Cl)cncc2Cl)cc1OC1CCCC1 [RP73401, reference compound]	completely abolished; also recorded: completely blocked

same assay, conditions: Homo sapiens, 1 h; HUVEC on Transwells, 1 μM RP73401, 10 μM Motapizone, 1 mM SNP or 100 nM ANP, 1 U/ml thrombin, HRP passage after 60 min; read-out: Inhibition of SNP- or ANP-induced permeability, −log IC50 [mol/l] (converted)

Structure (SMILES)	IC50
COc1ccc(-c2nnc3c4ccccc4c(Nc4ccc(NS(=O)(=O)c5cccs5)cc4)nn23)cc1 [Compound 1, Thiophene-2-sulfonic acid {4-[3-(4-methoxy-phenyl)-[1,2,4]triazolo[3,4-a]phthalazin-6-ylamino]-phenyl}-amide]	0.501 to 126 nM
COc1ccc(-c2nnc3c4ccccc4c(Nc4ccc(NS(C)(=O)=O)cc4)nn23)cc1 [Compound 3, N-{4-[3-(4-Methoxy-phenyl)-[1,2,4]triazolo[3,4-a]phthalazin-6-ylamino]-phenyl}-methanesulfonamide]	0.501 to 126 nM
COc1ccc(-c2nnc3c4ccccc4c(Nc4ccc(NS(=O)(=O)Cc5ccccc5)cc4)nn23)cc1 [Compound 4, N-{4-[3-(4-Methoxy-phenyl)-[1,2,4]triazolo[3,4-a]phthalazin-6-ylamino]-phenyl}-1-phenyl-methanesulfonamide]	0.501 to 126 nM
COc1ccc(-c2nnc3c4ccccc4c(Nc4ccc(NS(=O)(=O)N5CCOCC5)cc4)nn23)cc1 [Compound 6, Morpholine-4-sulfonic acid {4-[3-(4-methoxy-phenyl)-[1,2,4]triazolo[3,4-a]phthalazin-6-ylamino]-phenyl}-amide]	0.501 to 126 nM
COc1ccc(-c2nnc3c4ccccc4c(Nc4ccc(S(=O)(=O)N(C)C)cc4)nn23)cc1 [Compound 7, [4-(N,N-dimethylsulfamoyl)-phenyl]-[3-(4-methoxy-phenyl)-[1,2,4]triazolo[3,4-a]phthalazin-6-yl]-amine]	0.501 to 126 nM
COc1ccc(-c2nnc3c4ccccc4c(Nc4cccc(NS(=O)(=O)c5ccc(C)cc5)c4)nn23)cc1 [Compound 9, N-{3-[3-(4-Methoxy-phenyl)-[1,2,4]triazolo[3,4-a]phthalazin-6-ylamino]-phenyl}-4-methyl-benzenesulfonamide]	0.501 to 126 nM
COc1ccc(-c2nnc3c4ccccc4c(Nc4cccc(S(=O)(=O)N(C)C)c4)nn23)cc1 [Compound 13, [3-(N,N-dimethylsulfamoyl)-phenyl]-[3-(4-methoxy-phenyl)-[1,2,4]triazolo[3,4-a]phthalazin-6-yl]-amine]	0.501 to 126 nM
CN(C)S(=O)(=O)c1cccc(Nc2nn3c(-c4ccccc4Br)nnc3c3ccccc23)c1 [Compound 27, [3-(N,N-dimethylsulfamoyl)-phenyl]-[3-(2-bromo-phenyl)-[1,2,4]triazolo[3,4-a]phthalazin-6-yl]-amine]	0.501 to 126 nM
CN(C)S(=O)(=O)c1cccc(Nc2nn3c(-c4ccccc4C(F)(F)F)nnc3c3ccccc23)c1 [Compound 33, [3-(N,N-dimethylsulfamoyl)-phenyl]-[3-(2-trifluoromethyl-phenyl)-[1,2,4]triazolo[3,4-a]phthalazin-6-yl]-amine]	0.501 to 126 nM

system: not given; assay: not given; details: not given

Structure (SMILES)	melting point
COc1ccc(-c2nnc3c4ccccc4c(Nc4ccc(NS(=O)(=O)c5cccs5)cc4)nn23)cc1 [Compound 1, Thiophene-2-sulfonic acid {4-[3-(4-methoxy-phenyl)-[1,2,4]triazolo[3,4-a]phthalazin-6-ylamino]-phenyl}-amide]	351 to 353 °C
COc1ccc(-c2nnc3c4ccccc4c(Nc4ccc(NS(=O)(=O)c5cn(C)cn5)cc4)nn23)cc1 [Compound 2, 1-Methyl-1H-imidazole-4-sulfonic acid {4-[3-(4-methoxy-phenyl)-[1,2,4]triazolo[3,4-a]phthalazin-6-ylamino]-phenyl}-amide]	346 to 348 °C
COc1ccc(-c2nnc3c4ccccc4c(Nc4ccc(NS(C)(=O)=O)cc4)nn23)cc1 [Compound 3, N-{4-[3-(4-Methoxy-phenyl)-[1,2,4]triazolo[3,4-a]phthalazin-6-ylamino]-phenyl}-methanesulfonamide]	318 to 320 °C
COc1ccc(-c2nnc3c4ccccc4c(Nc4ccc(NS(=O)(=O)Cc5ccccc5)cc4)nn23)cc1 [Compound 4, N-{4-[3-(4-Methoxy-phenyl)-[1,2,4]triazolo[3,4-a]phthalazin-6-ylamino]-phenyl}-1-phenyl-methanesulfonamide]	304 to 306 °C
COc1ccc(-c2nnc3c4ccccc4c(Nc4ccc(NS(=O)(=O)c5cccc(OC)c5)cc4)nn23)cc1 [Compound 5, 3-Methoxy-N-{4-[3-(4-methoxy-phenyl)-[1,2,4]triazolo[3,4-a]phthalazin-6-ylamino]-phenyl}-benzenesulfonamide]	290 °C
COc1ccc(-c2nnc3c4ccccc4c(Nc4ccc(NS(=O)(=O)N5CCOCC5)cc4)nn23)cc1 [Compound 6, Morpholine-4-sulfonic acid {4-[3-(4-methoxy-phenyl)-[1,2,4]triazolo[3,4-a]phthalazin-6-ylamino]-phenyl}-amide]	266 to 270 °C
COc1ccc(-c2nnc3c4ccccc4c(Nc4cccc(NS(=O)(=O)c5ccc(C)cc5)c4)nn23)cc1 [Compound 9, N-{3-[3-(4-Methoxy-phenyl)-[1,2,4]triazolo[3,4-a]phthalazin-6-ylamino]-phenyl}-4-methyl-benzenesulfonamide]	336 to 346 °C (dec.)
COc1ccc(-c2nnc3c4ccccc4c(Nc4cccc(NS(=O)(=O)c5cn(C)cn5)c4)nn23)cc1 [Compound 11, 1-Methyl-1H-imidazole-4-sulfonic acid {3-[3-(4-methoxy-phenyl)-[1,2,4]triazolo[3,4-a]phthalazin-6-ylamino]-phenyl}-amide]	184 to 187 °C
COc1ccc(-c2nnc3c4ccccc4c(Nc4cccc(NS(=O)(=O)c5ccc(C(C)=O)cc5)c4)nn23)cc1 [Compound 12, 4-Acetyl-N-{3-[3-(4-methoxy-phenyl)-[1,2,4]triazolo[3,4-a]phthalazin-6-ylamino]-phenyl}-benzenesulfonamide]	352 to 354 °C
COc1ccc(-c2nnc3c4ccccc4c(Nc4cccc(NS(=O)(=O)c5ccc(N6CCOCC6)nc5)c4)nn23)cc1 [Compound 16, 6-Morpholin-4-yl-pyridine-3-sulfonic acid {3-[3-(4-methoxy-phenyl)-[1,2,4]triazolo[3,4-a]phthalazin-6-ylamino]-phenyl}-amide]	323 to 329 °C
COc1ccc(-c2nnc3c4ccccc4c(Nc4cccc(NS(=O)(=O)c5ccc(NC(C)=O)cc5)c4)nn23)cc1 [Compound 18, N-(4-{3-[3-(4-Methoxy-phenyl)-[1,2,4]triazolo[3,4-a]phthalazin-6-ylamino]-phenylsulfamoyl}-phenyl)-acetamide]	328 to 331 °C
COc1ccc(-c2nnc3c4ccccc4c(Nc4cccc(S(N)(=O)=O)c4)nn23)cc1 [Compound 23, 3-[3-(4-Methoxy-phenyl)-[1,2,4]triazolo[3,4-a]phthalazin-6-ylamino]-benzenesulfonamide]	342 to 349 °C
COc1ccc(-c2nnc3c4ccccc4c(Nc4cccc(S(=O)(=O)N(C)C)c4)nn23)cc1 [Compound 24, 3-[3-(4-Methoxy-phenyl)-[1,2,4]triazolo[3,4-a]phthalazin-6-ylamino]-N,N-dimethyl-benzenesulfonamide]	220 to 227 °C
COc1ccc(Cc2nnc3c4ccccc4c(Nc4ccc(S(=O)(=O)N5CCCCC5)cc4)nn23)cc1 [Compound 35, [3-(4-Methoxy-benzyl)-[1,2,4]triazolo[3,4-a]phthalazin-6-yl]-[4-(piperidine-1-sulfonyl)-phenyl]-amine]	283 to 285 °C
COc1ccc(-c2nnc3c4ccccc4c(Nc4ccc(C#N)cc4)nn23)cc1 [Compound T2, 4-[3-(4-Methoxyphenyl)-[1,2,4]triazolo[3,4-a]phthalazin-6-ylamino]-benzonitrile]	314 °C
COc1ccc(-c2nnc3c4ccccc4c(Nc4cccc(-c5nn[nH]n5)c4)nn23)cc1 [Compound T3, [3-(4-Methoxy-phenyl)-[1,2,4]triazolo[3,4-a]phthalazin-6-yl]-[3-(2H-tetrazol-5-yl)-phenyl]-amine]	305 to 308 °C
COc1ccc(-c2nnc3c4ccccc4c(Nc4ccc(-c5nn[nH]n5)cc4)nn23)cc1 [Compound T4, [3-(4-Methoxy-phenyl)-[1,2,4]triazolo[3,4-a]phthalazin-6-yl]-[4-(2H-tetrazol-5-yl)-phenyl]-amine]	281 to 284 °C
COc1ccc(-c2nnc3c4ccccc4c(Nc4cccc(-c5nnn(C)n5)c4)nn23)cc1 [Compound T5, [3-(4-Methoxy-phenyl)-[1,2,4]triazolo[3,4-a]phthalazin-6-yl]-[3-(2-methyl-2H-tetrazol-5-yl)-phenyl]-amine]	256 to 259 °C
COc1ccc(-c2nnc3c4ccccc4c(Nc4ccc(-c5nnn(C)n5)cc4)nn23)cc1 [Compound T6, [3-(4-Methoxy-phenyl)-[1,2,4]triazolo[3,4-a]phthalazin-6-yl]-[4-(2-methyl-2H-tetrazol-5-yl)-phenyl]-amine]	289 to 293 °C
COc1ccc(Cc2nnc3c4ccccc4c(Nc4cccc(-c5nn[nH]n5)c4)nn23)cc1 [Compound T8, [3-(4-Methoxy-benzyl)-[1,2,4]triazolo[3,4-a]phthalazin-6-yl]-[3-(2H-tetrazol-5-yl)-phenyl]-amine]	292 to 293 °C
COc1ccc(Cc2nnc3c4ccccc4c(Nc4cccc(-c5nnn(C)n5)c4)nn23)cc1 [Compound T9, [3-(4-Methoxy-benzyl)-[1,2,4]triazolo[3,4-a]phthalazin-6-yl]-[3-(2-methyl-2H-tetrazol-5-yl)-phenyl]-amine]	262 to 264 °C
